According to patent US12227512B2, “Benzimidazoles and methods of using same” (priority 2019, dated 2025):
pIC50: −log10 of the molar value.

Columns and labels:
[1] = system: Gli-luciferace activity in the SUFU-KO-light cells; test: SUFU-KO-Light assay, inhibition of Gli-luciferase activity; assay type: cell-based; conditions: read-out: IC50 (μM) SUFU-KO-Light; inhibition of Gli-luciferase activity; listed as Isis-11 (+isomer/E1)
Description: IC50 SUFO-KO-Light values are for inhibition of Gli-luciferace activity in the SUFU-KO-light cells developed by the James Chen laboratory at Stanford University.

MB002 cells = test: MTT assay, cell proliferation; assay type: cell-based; conditions: MB002, read-out: Dose E1
SARS-CoV-2 = conditions: SARS-CoV-2-infected Vero E6 cells; 6 concentrations, 48 hours; XTT
[2] = Mouse PK evaluation, plasma, IV; conditions: CD-1 mice; for concentration at 0.083 h / concentration at 0.25 h / concentration at 0.5 h / concentration at 1 h / concentration at 2 h / concentration at 4 h / concentration at 8 h / concentration at 24 h: Plasma concentration; for AUC(0-t): AUClast
[3] = CD-1, mouse, in vivo, 3 mg/kg, Mean, 3 mg/kg IV
[4] = CD-1, mouse, in vivo, 3 mg/kg, Mouse 1, 3 mg/kg IV
[5] = CD-1, mouse, in vivo, 3 mg/kg, Mouse 2, 3 mg/kg IV
[6] = CD-1, mouse, in vivo, 3 mg/kg, Mouse 3, 3 mg/kg IV

With `CN(C)CCCn1c(N)nc2ccc3c(c21)CC(CN(C)C)O3` (single isomer, unassigned) [Compound E1] the IC50 [1] was 5 µM, the pIC50 (MB002 cells) was 4.78 and the “effect on viral replication over the tested concentration range” value (SARS-CoV-2) was “no effect on viral replication”. For the same molecule, the “AUC_%Extrap_obs, Mean” value ([2]; 3 mg/kg IV) was 20.8%, the “AUC_%Extrap_obs, Mouse 1” value ([2]; 3 mg/kg IV) was 25.7% and the “AUC_%Extrap_obs, Mouse 2” value ([2]; 3 mg/kg IV) was 20.8%. The “AUC_%Extrap_obs, Mouse 3” value ([2]; 3 mg/kg IV) was 15.9%, the “AUClast/D, Mean” value ([2]; 3 mg/kg IV) was 116 and the “AUClast/D, Mouse 1” value ([2]; 3 mg/kg IV) was 107. The “AUClast/D, Mouse 2” value ([2]; 3 mg/kg IV) was 108, the “AUClast/D, Mouse 3” value ([2]; 3 mg/kg IV) was 132 and the “C0, Mean” value ([2]; 3 mg/kg IV) was 0.664 µg/mL. The “C0, Mouse 1” value ([2]; 3 mg/kg IV) was 0.619 µg/mL, the “C0, Mouse 2” value ([2]; 3 mg/kg IV) was 0.624 µg/mL and the “C0, Mouse 3” value ([2]; 3 mg/kg IV) was 0.749 µg/mL. The “Cl_obs, Mean” value ([2]; 3 mg/kg IV) was 6.9 L/h/kg, the “Cl_obs, Mouse 1” value ([2]; 3 mg/kg IV) was 6.96 L/h/kg and the “Cl_obs, Mouse 2” value ([2]; 3 mg/kg IV) was 7.32 L/h/kg. For the same molecule, the “Cl_obs, Mouse 3” value ([2]; 3 mg/kg IV) was 6.36 L/h/kg, the “Vss_obs, Mean” value ([2]; 3 mg/kg IV) was 90 L/kg and the “Vss_obs, Mouse 1” value ([2]; 3 mg/kg IV) was 104 L/kg. The “Vss_obs, Mouse 2” value ([2]; 3 mg/kg IV) was 96.2 L/kg, the “Vss_obs, Mouse 3” value ([2]; 3 mg/kg IV) was 68.3 L/kg and the “Plasma concentration, Mouse 1” value ([2]; 3 mg/kg IV, 0.5 h) was 0.0455 µg/mL. For the same molecule, the “Plasma concentration, Mouse 1” value ([2]; 3 mg/kg IV, 1 h) was 0.0214 µg/mL, the “Plasma concentration, Mouse 1” value ([2]; 3 mg/kg IV, 2 h) was 0.0134 µg/mL and the “Plasma concentration, Mouse 1” value ([2]; 3 mg/kg IV, 24 h) was 0.01 µg/mL. For the same molecule, the “Plasma concentration, Mouse 3” value ([2]; 3 mg/kg IV, 24 h) was 0.00433 µg/mL, the concentration at 0.083 h [2, 3] was 0.387 µg/mL and the concentration at 0.25 h [2, 3] was 0.131 µg/mL. It also gave a concentration at 0.5 h ([2]; CD-1, mouse, in vivo, 3 mg/kg, Mean, 3 mg/kg IV, 0.5 h) of 0.0591 µg/mL, a concentration at 1 h ([2]; CD-1, mouse, in vivo, 3 mg/kg, Mean, 3 mg/kg IV, 1 h) of 0.0429 µg/mL and a concentration at 2 h ([2]; CD-1, mouse, in vivo, 3 mg/kg, Mean, 3 mg/kg IV, 2 h) of 0.0178 µg/mL. For the same molecule, the concentration at 4 h [2, 3] was 0.0135 µg/mL, the concentration at 8 h [2, 3] was 0.0073 µg/mL and the concentration at 24 h ([2]; CD-1, mouse, in vivo, 3 mg/kg, Mean, 3 mg/kg IV, 24 h) was 0.0061 µg/mL. For the same molecule, the concentration at 0.083 h [2, 4] was 0.352 µg/mL, the concentration at 0.25 h [2, 4] was 0.113 µg/mL and the concentration at 4 h [2, 4] was 0.0133 µg/mL. It also gave a concentration at 8 h [2, 4] of 0.0055 µg/mL, a concentration at 0.083 h [2, 5] of 0.367 µg/mL and a concentration at 0.25 h [2, 5] of 0.126 µg/mL. It also gave a concentration at 0.5 h ([2]; CD-1, mouse, in vivo, 3 mg/kg, Mouse 2, 3 mg/kg IV, 0.5 h) of 0.0609 µg/mL, a concentration at 1 h ([2]; CD-1, mouse, in vivo, 3 mg/kg, Mouse 2, 3 mg/kg IV, 1 h) of 0.0518 µg/mL and a concentration at 2 h ([2]; CD-1, mouse, in vivo, 3 mg/kg, Mouse 2, 3 mg/kg IV, 2 h) of 0.0207 µg/mL. The concentration at 4 h [2, 5] was 0.0129 µg/mL, the concentration at 8 h [2, 5] was 0.0062 µg/mL and the concentration at 24 h ([2]; CD-1, mouse, in vivo, 3 mg/kg, Mouse 2, 3 mg/kg IV, 24 h) was 0.00411 µg/mL. For the same molecule, the concentration at 0.083 h [2, 6] was 0.443 µg/mL, the concentration at 0.25 h [2, 6] was 0.154 µg/mL and the concentration at 0.5 h ([2]; CD-1, mouse, in vivo, 3 mg/kg, Mouse 3, 3 mg/kg IV, 0.5 h) was 0.071 µg/mL. It also gave a concentration at 1 h ([2]; CD-1, mouse, in vivo, 3 mg/kg, Mouse 3, 3 mg/kg IV, 1 h) of 0.0555 µg/mL, a concentration at 2 h ([2]; CD-1, mouse, in vivo, 3 mg/kg, Mouse 3, 3 mg/kg IV, 2 h) of 0.0192 µg/mL and a concentration at 4 h [2, 6] of 0.0143 µg/mL. For the same molecule, the concentration at 8 h [2, 6] was 0.0102 µg/mL, the AUC(0-inf) ([2]; CD-1, mouse, in vivo, iv, 3 mg/kg, AUCInf, Mouse 3, 3 mg/kg IV) was 0.47 µg·h/mL and the AUC(0-t) ([2]; CD-1, mouse, in vivo, iv, 3 mg/kg, Mean, 3 mg/kg IV) was 0.347 µg·h/mL. It also gave an AUC(0-t) ([2]; CD-1, mouse, in vivo, iv, 3 mg/kg, Mouse 1, 3 mg/kg IV) of 0.321 µg·h/mL, an AUC(0-t) ([2]; CD-1, mouse, in vivo, iv, 3 mg/kg, Mouse 2, 3 mg/kg IV) of 0.324 µg·h/mL and an AUC(0-t) ([2]; CD-1, mouse, in vivo, iv, 3 mg/kg, Mouse 3, 3 mg/kg IV) of 0.395 µg·h/mL. The MRT inf ([2]; CD-1, mouse, in vivo, iv, 3 mg/kg, MRTInf_obs, Mouse 3, 3 mg/kg IV) was 10.7 h and the half-life ([2]; CD-1, mouse, in vivo, iv, 3 mg/kg, T1/2, Mouse 3, 3 mg/kg IV) was 12 h.
